In general, IC50 refers to the concentration that gives 50% inhibition.

Some results are limits rather than exact numbers.

The values that follow come from patent US20090042869A1, “SIGNAL-DEPENDENT SPLICING OF TISSUE FACTOR PRE-mRNA IN [sequence] CELLS” (UNIVERSITY OF UTAH RESEARCH FOUNDATION, priority 2007, published 2009).

The subject of test [1] is activated platelets. The test can be described thus: TF-dependent procoagulant activity (Actichrome TF assay). Particulars: stimulated platelets (fibrinogen + thrombin). Format: cell-based, human. The source says: (§1) CD34+ stem cells were isolated from human umbilical cord blood and were differentiated into megakaryocytes that produce proplatelets using methods that we have previously described^18. Leukocyte-depleted human platelets were isolated from healthy volunteers using previously described methods^18,29. For all of the platelet studies, residual leukocytes were removed from the washed preparations by CD45+ bead selection as previously described^1. […] Platelets were resuspended in M199 serum-free culture medium^1,2. Platelets were left quiescent or allowed to adhere to immobilized human fibrinogen (Calbiochem) in the presence of thrombin (0.05 U/ml; Sigma-Aldrich). Select studies were also conducted with suspended platelets that were activated with ADP, collagen, or thrombin. […] For translational inhibition, platelets were isolated and preincubated for 2 h in the presence of vehicle (water) or puromycin as previously described^2.
TF-dependent procoagulant activity was calculated with an Actichrome TF assay (American Diagnostica) as previously described^13. […] Intact cellular membranes and microparticles were immediately placed in 25 μl of kit assay buffer and TF-dependent procoagulant activity was calculated. […]

For test [2], the system named is IL-1β pre-mRNA. The test can be described thus: IL-1β pre-mRNA splicing in platelets of subjects receiving medication. In kind it is in vivo, human. Particulars: in young subjects.
Test [3] deals with TF pre-mRNA. Description: TF pre-mRNA splicing in platelets of subjects receiving medication. In kind it is in vivo, human. To be noted: for signal-dependent TF pre-mRNA splicing: in the elderly; for impact on TF pre-mRNA splicing: subjects receiving the drug.
Test [4] has as its target mClk3 (Mus musculus, UniProt O35492). Particulars: cited from earlier work.
Test [5] addresses Clk1 (Homo sapiens, UniProt P49759). Description: Immune complex kinase assay for Clk1 activity in platelets (SF2/ASF substrate). In kind it is cell-based. To be noted: stimulated platelets (fibrinogen + thrombin), pretreated; vs vehicle.
Excerpt: Leukocyte-depleted human platelets were isolated from healthy volunteers using previously described methods^18,29. For all of the platelet studies, residual leukocytes were removed from the washed preparations by CD45+ bead selection as previously described^1. […] Platelets were resuspended in M199 serum-free culture medium^1,2. Platelets were left quiescent or allowed to adhere to immobilized human fibrinogen (Calbiochem) in the presence of thrombin (0.05 U/ml; Sigma-Aldrich). […] For translational inhibition, platelets were isolated and preincubated for 2 h in the presence of vehicle (water) or puromycin as previously described^2.
Immune complex kinase assay for Clk1 activity. Clk1 activity in platelets was determined using an immune complex kinase assay. […] Kinase assays were performed by addition of recombinant SF2/ASF (Protein One) in the presence of γ-[^32P]ATP (MP Biomedicals). At the end of this incubation period, the agarose beads and immune complexes were removed by centrifugation, and the unbound sample, which contained SF2/ASF, was resolved by SDS-PAGE.
The target in test [6] is SRPK1 (Homo sapiens, UniProt Q96SB4). To be noted: at concentrations up to 1 μM; cited from earlier work.
Test [7] has as its system PKC. To be noted: at concentrations up to 1 μM; cited from earlier work.
Test [8] deals with platelets. Description: Other platelet functional responses (immunocytochemistry). In kind it is cell-based, human. Particulars: fibrinogen + thrombin, 1 h. The protocol: After 1 h, the cells were prepared for immunocytochemical detection (red staining) of Clk1 (top) or β-tubulin (bottom). The green stain in each panel identifies polymerized actin.
Detailed strategies for protein detection by flow cytometry, Western blot analysis, and immunocytochemistry have been previously published^18,29. A polyclonal antibody against human TF (pAb CL 20150A; Affinity Biologicals) was used under nonreducing conditions to detect TF protein by Western analysis. Antibodies directed against TF (mAb 550252; BD Biosciences), Clk family members (Abgent), or β-tubulin (Sigma-Aldrich) were used for immunocytochemical studies. For the in situ experiments, polymerized actin was detected with Alexa fluor 488 phalloidin (Molecular Probes). Specificity was confirmed by parallel studies with nonimmune IgG or deletion of the primary antibody. Detailed strategies for protein detection by Western analysis and immunocytochemistry have been previously published^1,2. Flow cytometric analysis of surface-expressed CD14, CD45, and CD162 (PSGL-1) was performed on washed platelet preparations before and after CD45 depletion, on CD45 positively selected cells, and on purified monocytes (FIG. 1).

In test [9] the test system is TF pre-mRNA. The test can be described thus: TF pre-mRNA splicing in activated platelets (PCR). In kind it is cell-based, human. To be noted: platelets adherent to fibrinogen, coactivated with thrombin 2 h.
Excerpt: as §1, with “described^2. For most of the TF pre-mRNA studies, primers that targeted sequences in exon four ([NT] ID NO: 1) and five ([NT] ID NO: 2), and thus spanned intron four, were used to determine endogenous splicing of TF pre-mRNA in platelets. Indirect in situ hybridization or direct in situ PCR was used to detect TF pre-mRNA in megakaryocytes and platelets as previously described^18. Primers that detected alternatively spliced human […] used as previously described^3. […]” for “described^2.”

Test [10] concerns TF protein. The test can be described thus: TF protein expression in platelets and platelet-derived microparticles (Western blot). Format: cell-based, human. To be noted: activated platelets, 30 min or 4 h.
Excerpt: as §1
Detailed strategies for protein detection by flow cytometry, Western blot analysis, and immunocytochemistry have been previously published^18,29. A polyclonal antibody against human TF (pAb CL 20150A; Affinity Biologicals) was used under nonreducing conditions to detect TF protein by Western analysis. […] For the in situ experiments, polymerized actin was detected with Alexa fluor 488 phalloidin (Molecular Probes). […]
A general note: In western blotting, separated proteins are transferred to a membrane and probed.

The target of test [11] is SRPK2 (Homo sapiens, UniProt P78362). To be noted: at concentrations up to 1 μM; cited from earlier work.
Test [12] has as its system human plasma. Description: Plasma clot formation with membranes from activated platelets. Format: cell-based. To be noted: membranes of platelets activated 5 min or 2 h. The protocol: FIG. 5F illustrates clot formation in plasma that is incubated with membranes isolated from quiescent platelets or platelets activated with fibrinogen and thrombin for 5 min (left) or 2 h (right). The white bars represent activated platelets that were incubated with a neutralizing antibody directed against tissue factor (Anti-TF). The data in FIGS. 5D, 5E, an 5F represent the mean±SEM of six independent experiments.
FIG. 8B is a western blot analysis showing TF protein expression in platelets and platelet-derived microparticles. […] Recombinant TF was used as a positive control. FIG. 8C depicts TF-dependent procoagulant activity in freshly isolated platelets or platelets activated, as in FIG. 2B, in the presence or absence of the Clk inhibitor. […] A single asterisk (*) indicates a statistically significant difference (P<0.05) in TF-dependent procoagulant activity between freshly isolated (baseline) and activated platelets; the double asterisk (**) represents a significant difference (P<0.05) between activated platelets under untreated or treated conditions. […] The activated platelets were pretreated with either the Clk inhibitor (Clk Inh) or DMSO. The data represent the mean±SEM of five independent experiments. […]
Therefore, the affect of platelet-derived TF on plasma clotting times was determined. […]

For test [13], the system named is PKA. Particulars: at concentrations up to 1 μM; cited from earlier work.

Chain of mClk3 (O35492 whole entry): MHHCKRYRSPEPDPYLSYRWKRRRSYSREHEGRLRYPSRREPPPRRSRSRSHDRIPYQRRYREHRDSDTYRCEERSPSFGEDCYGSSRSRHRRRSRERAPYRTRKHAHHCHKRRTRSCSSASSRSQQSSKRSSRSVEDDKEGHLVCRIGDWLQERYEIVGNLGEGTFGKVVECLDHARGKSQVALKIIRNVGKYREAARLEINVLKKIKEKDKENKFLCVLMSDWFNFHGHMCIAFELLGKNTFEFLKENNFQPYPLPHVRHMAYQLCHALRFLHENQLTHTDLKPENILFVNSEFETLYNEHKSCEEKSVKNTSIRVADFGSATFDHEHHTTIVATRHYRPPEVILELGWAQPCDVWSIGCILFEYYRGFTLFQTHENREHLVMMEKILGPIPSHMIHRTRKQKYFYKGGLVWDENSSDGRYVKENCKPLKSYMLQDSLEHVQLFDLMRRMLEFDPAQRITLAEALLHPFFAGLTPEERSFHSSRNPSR
Chain of Clk1 (P49759 whole entry): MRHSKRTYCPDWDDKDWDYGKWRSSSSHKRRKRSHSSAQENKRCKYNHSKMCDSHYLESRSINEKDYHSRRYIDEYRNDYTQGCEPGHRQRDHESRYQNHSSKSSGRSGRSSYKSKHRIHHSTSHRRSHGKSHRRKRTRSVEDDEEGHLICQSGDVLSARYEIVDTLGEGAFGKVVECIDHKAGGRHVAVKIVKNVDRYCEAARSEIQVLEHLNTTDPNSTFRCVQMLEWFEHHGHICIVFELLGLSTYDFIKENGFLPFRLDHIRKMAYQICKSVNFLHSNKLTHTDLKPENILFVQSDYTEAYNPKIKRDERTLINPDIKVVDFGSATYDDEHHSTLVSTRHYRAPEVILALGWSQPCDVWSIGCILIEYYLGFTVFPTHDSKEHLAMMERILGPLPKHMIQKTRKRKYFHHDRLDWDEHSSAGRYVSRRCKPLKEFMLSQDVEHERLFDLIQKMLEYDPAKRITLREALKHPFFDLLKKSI
Chain of SRPK1 (Q96SB4 whole entry, species assumed): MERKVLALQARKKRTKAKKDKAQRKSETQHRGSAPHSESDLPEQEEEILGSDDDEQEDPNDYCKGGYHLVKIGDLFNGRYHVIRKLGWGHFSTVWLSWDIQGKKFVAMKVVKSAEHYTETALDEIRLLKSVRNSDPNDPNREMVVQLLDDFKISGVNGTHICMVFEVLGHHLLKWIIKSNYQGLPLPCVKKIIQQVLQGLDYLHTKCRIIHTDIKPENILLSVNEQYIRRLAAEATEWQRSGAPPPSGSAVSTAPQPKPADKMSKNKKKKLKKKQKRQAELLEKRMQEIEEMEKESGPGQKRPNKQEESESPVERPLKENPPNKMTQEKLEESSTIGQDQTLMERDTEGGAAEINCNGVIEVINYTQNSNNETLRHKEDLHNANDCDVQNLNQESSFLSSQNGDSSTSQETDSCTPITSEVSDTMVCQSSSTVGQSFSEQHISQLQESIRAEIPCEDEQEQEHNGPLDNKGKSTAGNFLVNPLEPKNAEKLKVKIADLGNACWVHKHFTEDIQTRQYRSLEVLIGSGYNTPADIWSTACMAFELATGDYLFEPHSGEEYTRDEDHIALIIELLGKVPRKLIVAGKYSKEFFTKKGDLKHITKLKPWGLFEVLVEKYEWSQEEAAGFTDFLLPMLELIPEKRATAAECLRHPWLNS
Chain of SRPK2 (P78362 whole entry, species assumed): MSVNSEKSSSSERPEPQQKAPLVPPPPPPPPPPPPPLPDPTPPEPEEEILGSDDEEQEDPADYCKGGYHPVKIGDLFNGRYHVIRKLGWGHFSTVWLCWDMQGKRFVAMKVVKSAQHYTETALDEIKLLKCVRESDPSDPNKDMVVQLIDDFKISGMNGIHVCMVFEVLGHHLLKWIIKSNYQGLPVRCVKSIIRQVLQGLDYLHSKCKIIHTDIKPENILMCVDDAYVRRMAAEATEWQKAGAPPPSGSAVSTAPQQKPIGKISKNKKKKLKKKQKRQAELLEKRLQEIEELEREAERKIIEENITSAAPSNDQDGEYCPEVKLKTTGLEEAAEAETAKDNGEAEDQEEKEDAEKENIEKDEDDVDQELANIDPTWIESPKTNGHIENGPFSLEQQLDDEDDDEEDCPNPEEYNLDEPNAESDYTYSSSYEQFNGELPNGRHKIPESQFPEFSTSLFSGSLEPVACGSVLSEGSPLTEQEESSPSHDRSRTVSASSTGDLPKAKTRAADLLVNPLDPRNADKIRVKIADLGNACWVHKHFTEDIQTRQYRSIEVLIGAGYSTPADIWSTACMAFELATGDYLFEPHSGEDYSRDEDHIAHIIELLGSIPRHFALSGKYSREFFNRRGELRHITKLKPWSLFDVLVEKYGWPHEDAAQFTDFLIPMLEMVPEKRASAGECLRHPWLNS

Take `COc1ccc(C[C@H](N)C(=O)N[C@H]2[C@@H](O)[C@H](n3cnc4c(N(C)C)ncnc43)O[C@@H]2CO)cc1` [Puromycin]: the TF-dependent procoagulant activity result in test [1] was “significantly (P<0.05) reduced”.

As for `CC(=O)Oc1ccccc1C(=O)O` [aspirin], the “IL-1β pre-mRNA splicing” value in [2] was “do not block”. Moreover, in [3], the “signal-dependent TF pre-mRNA splicing” value is “do not block” and the “impact on TF pre-mRNA splicing” value was “do not appear to have a significant impact”.

For the molecule heparin, in [2], the “IL-1β pre-mRNA splicing” value was “do not block”. In test [3], the “signal-dependent TF pre-mRNA splicing” value was “do not block” and the “impact on TF pre-mRNA splicing” value is “do not appear to have a significant impact”.

In the case of `CCN1/C(=C/C(C)=O)Sc2ccc(OC)cc21` [Tg003, (Z)-1-(3-Ethyl-5-methoxy-2,3-dihydrobenzothiazol-2-ylidene)propan-2-one], the 50% inhibitory concentration (IC50) in test [4] is greater than 10 µM. Also, the “Clk1-dependent SF2/ASF phosphorylation” value in test [5] is “suppressed”. Besides, the “effect on activity of SRPK1” value in [6] was “does not affect”. For the same molecule, the “effect on activity of PKC” value in [7] was “does not affect”. Besides, the “other platelet functional responses (adherence and spreading, actin polymerization, tubulin organization, Clk1 redistribution)” value in [8] was “no effect”. Besides, the “processing of TF pre-mRNA” value in test [9] is “prevented”. Further, the “expression of TF protein” value in [10] was “blocked”. For the same molecule, the “effect on activity of SRPK2” value in [11] is given as “does not affect”. For the same molecule, in test [12], the “onset of plasma clot formation” value was “delayed”. In [1], the TF-dependent procoagulant activity result is on record as “significantly (P<0.05) reduced”. Moreover, in test [13], the “effect on activity of PKA” value is “does not affect”.
